Common to all, as to format: cell-based, human
Assay [1] concerns MART-126-35-specific CTL clone M26-H1. The experiment in a line: Saturation mutagenesis APL screen: bead-based cross-presentation by immature dendritic cells, IFN-γ sandwich ELISA. Conditions: 200 μl bacterial cultures, 88 clones, CTL clone M26-H1, FIG. 2. (In general: In an ELISA, binding on a coated surface is turned into a signal by an enzyme label.)
Another assay deals with CD-4+ cells. In words: NY-ESO-1 APL cross-presented mini-gene products, IFN-γ ELISA, CD-4+ cells (FIG. 8A). How it is done: FIG. 8A. Native and superagonist CTL determinants can be distinguished in bead-based cross presentation assay. Oligonucleotides encoding NY-ESO-1157-170 were cloned into and expressed by pQE40 expression vectors. The mini-gene products were isolated and “fed” to immature dendritic cells as described in the Examples. NY-ESO-1157-170-specific CTL clones were used to detect the presence of the cross-presented mini-gene products (NY-ESO-1157-170). Induced IFN-γ expression was determined by standard sandwich ELISA. Synthetic wild-type peptide was used a positive control. […] Results for CD-4+ cells are shown.
FIG. 8A and FIG. 8B show the ability of several NY-ES0-1APL to stimulate CD-4^| fractions (FIG. 8A) and PBMC (FIG. 8B).

For assay [2], the system named is T2 cells pulsed with 1 μM of MART-126-35. The experiment in a line: In vitro cytotoxicity assay (51Cr release) by polyclonal CTL lines generated with analog peptides; target T2 pulsed with MART-126-35 (M26). How it is done: (§1) Isolated cells were replicated using 30 ng/ml anti-CD3 antibody (OKT3) and IL-2 at 50 U/ml in the presence of irradiated feeder PBMC and LCL for 2 weeks. IL-2 was replenished every 2-3 days.
(§2) Target cells were labeled with 100 μCi of ^51Cr and co-cultured with effector cells for 4 hours at 37° C. plus 5% CO2. […] Released ^51Cr was measured with a gamma scintillation counter and percent specific lysis was determined by using the formula: percent specific release=(experimental release-spontaneous release)/(maximum release-spontaneous release). […]
(§3) “ND” is not done. T2 is a TAP-deficient cell line that expresses peptide-unbound HLA-A2 molecules unless pulsed extracellularly. […] Numbers represent the percentage specific lysis obtained from each target. T375 is a HLA-A2 positive/MART-1 negative cell line.

For assay [3], the system named is T2 cells pulsed with NY-ESO-1157-165. In words: In vitro cytotoxicity assay (51Cr release) by polyclonal CTL lines generated with analog peptides; target T2 pulsed with NY-ESO-1157-165 (negative control). To be noted: target T2 (pulsed with NYESO-1157-165). The procedure: as §1, §2, §3
Assay [4] has as its system A375 (HLA-A2+/NY-ESO-1+) melanoma cell line. The experiment in a line: In vitro cytotoxicity assay (51Cr release) by polyclonal CTL lines generated with analog peptides; target A375. The procedure:
as §1, §2, §3

Assay [5] relates to Mel 526 (HLA-A2+/MART-1+) melanoma cell line. In words: In vitro cytotoxicity assay (51Cr release) by polyclonal CTL lines generated with analog peptides; target Mel 526. To be noted: target Mel526. The procedure: as §1, §2, §3
Where [6] appears, read: CTL line from Healthy1, E/T 12.5.
[7] abbreviates: CTL line from MelPt-B, E/T 12.5.
[8] abbreviates: CTL line from MelPt-C, E/T 12.5.
Where [9] appears, read: CTL line from MelPt-D, E/T 12.5.
Setting [10] is: CTL line from MelPt-F, E/T 12.5.

For the substance “A27M: APL clones of MART-126-35 containing methionine residues at P2; previously described superagonist”, the “IFN-γ expression in P2 library screen of MART-126-35” value in assay [1] is “greater IFN-γ expression than wild type MART-126-35”.

As to “F170W: NY-ESO-1157-170 APL F170W (SLLMWITQCFLPVW)”, in the assay on CD-4+ cells, the “Stimulation of CD-4+ cells” value is listed as “most effective”.

Turning to “I162Q: NY-ESO-1157-170 APL I162Q (SLLMWQTQCFLPVF)”, the “Stimulation of CD-4+ cells” value with CD-4+ cells was “most effective”.

With “MART-126-35L33M (EAAGIGIMTV; UniProt Q16655 26-35, looked up, variant L33M)”, the “Percentage Specific Lysis from polyclonal CTL lines generated with the indicated peptide” value (“Percentage Specific Lysis” below) in assay [2] (setting [6]) was 38%; in assay [2] (CTL line from Healthy1, E/T 25), 49%; in assay [2] (CTL line from Healthy1, E/T 50), 57%; in assay [2] (setting [7]), 41%; in assay [2] (CTL line from MelPt-B, E/T 25) it was 52%; in assay [2] (CTL line from MelPt-B, E/T 50), 63%. In addition, the “Percentage Specific Lysis” value in assay [2] (setting [8]) is recorded as 76%; in assay [2] (CTL line from MelPt-C, E/T 25), 84%; in assay [2] (CTL line from MelPt-C, E/T 50), 91%; in assay [2] (setting [9]) it was 75%; in assay [2] (CTL line from MelPt-D, E/T 25), 84%; in assay [2] (CTL line from MelPt-D, E/T 50), 90%. For the same substance, the “Percentage Specific Lysis” value in assay [2] (setting [10]) came to 65%; in assay [2] (CTL line from MelPt-F, E/T 25) it was 72%; in assay [2] (CTL line from MelPt-F, E/T 50), 70%; in assay [3] (setting [6]), 5%; in assay [3] (CTL line from Healthy1, E/T 25), 6%; in assay [3] (CTL line from Healthy1, E/T 50), 2%. In addition, the “Percentage Specific Lysis” value was determined as 4% in assay [3] (setting [7]); 2% in assay [3] (CTL line from MelPt-B, E/T 25); 2% in assay [3] (CTL line from MelPt-B, E/T 50); 11% in assay [3] (setting [8]); 12% in assay [3] (CTL line from MelPt-C, E/T 25); 9% in assay [3] (CTL line from MelPt-C, E/T 50). For the same substance, the “Percentage Specific Lysis” value in assay [3] (setting [9]) is 8%; in assay [3] (CTL line from MelPt-D, E/T 25), 11%; in assay [3] (CTL line from MelPt-D, E/T 50), 14%; in assay [3] (setting [10]), 22%; in assay [3] (CTL line from MelPt-F, E/T 25), 21%; in assay [3] (CTL line from MelPt-F, E/T 50), 23%. In addition, the “Percentage Specific Lysis” value worked out at 10% in assay [4] (setting [6]); 13% in assay [4] (CTL line from Healthy1, E/T 25); 13% in assay [4] (CTL line from Healthy1, E/T 50); 9% in assay [4] (setting [7]); 12% in assay [4] (CTL line from MelPt-B, E/T 25); 13% in assay [4] (CTL line from MelPt-B, E/T 50). Besides, the “Percentage Specific Lysis” value in assay [4] (setting [8]) is recorded as 5%; in assay [4] (CTL line from MelPt-C, E/T 25), 2%; in assay [4] (CTL line from MelPt-C, E/T 50) it was 0%; in assay [4] (setting [9]), 6%; in assay [4] (CTL line from MelPt-D, E/T 25) it was 4%; in assay [4] (CTL line from MelPt-D, E/T 50), 2%. Moreover, the “Percentage Specific Lysis” value in assay [4] (setting [10]) was 5%; in assay [4] (CTL line from MelPt-F, E/T 25), 3%; in assay [4] (CTL line from MelPt-F, E/T 50) it was 2%; in assay [5] (setting [6]) it was 44%; in assay [5] (CTL line from Healthy1, E/T 25), 57%; in assay [5] (CTL line from Healthy1, E/T 50), 65%. Besides, the “Percentage Specific Lysis” value in assay [5] (setting [7]) is 58%; in assay [5] (CTL line from MelPt-B, E/T 25), 70%; in assay [5] (CTL line from MelPt-B, E/T 50), 80%; in assay [5] (setting [8]), 45%; in assay [5] (CTL line from MelPt-C, E/T 25), 52%; in assay [5] (CTL line from MelPt-C, E/T 50) it was 58%. Besides, the “Percentage Specific Lysis” value in assay [5] (setting [9]) came to 45%; in assay [5] (CTL line from MelPt-D, E/T 25) it was 54%; in assay [5] (CTL line from MelPt-D, E/T 50), 57%; in assay [5] (setting [10]), 38%; in assay [5] (CTL line from MelPt-F, E/T 25), 42%; in assay [5] (CTL line from MelPt-F, E/T 50), 44%.

“Q164S: NY-ESO-1157-170 APL Q164S (SLLMWITSCFLPVF)”: the “Stimulation of CD-4+ cells” value in the assay on CD-4+ cells is “most effective”.

(Values after US10328135B2, “Method of obtaining cytolytic T cells by using mutant tumor epitopes” (priority 2010, dated 2019).)
